Results from patent US20240025906A1 (NEURON23, INC., priority 2022, published 2024).

Each molecule was assayed on JAK1/TYK2 pSTAT5 (Tyr694/699) in THP-1 cell line (assay: IFNa-stimulated JAK1/TYK2 pSTAT5 (Tyr694/699) inhibition cellular assay, AlphaLISA). Details: Homo sapiens; THP-1 cells, IFNa-stimulated pSTAT5 (Tyr694/699), AlphaLISA (Assay B); read-out: Cellular_THP1_IFNa-pSTATS_TYK2.
Type: cell-based
Method: Assay B: JAK1/TYK2 pSTAT5 (Tyr694/699) inhibition IC50 Cellular Assays
To evaluate the inhibition effect of compounds disclosed herein against TYK2, an IFNa-stimulated JAE1/TYK2 pSTAT5 (Tyr694/699) quantification assay was conducted in the THP-1 cell line using an AlphaLISA detection method (PerkinElmer ALSU-PST5). Compounds in DMSO were serially diluted in a 96-well plate (10 mM starting concentration, 6-fold dilutions, 8 concentrations total) prior to dispensing of 8 nL into a 384-well plate using an I.DOT non-contact liquid handler (Dispendix). Cells were collected via centrifugation at 300 ref for 5 min and resuspended in Hanks' Balanced Salt Solution (Gibco 14175-079), and 6 μl containing 2e4 cells was dispensed into each well of the 384-well plate containing test compounds or DMSO alone (final concentrations: 10000, 1666.67, 277.78, 46.30, 7.72, 1.29, 0.21 and 0.04 nM). Cells were then incubated for 1 h at 37° C. with 5% CO2 prior to the addition of 2 μL IFNa (100 ng/mL; PBL Assay Science 11175-1). Following an additional 30 min incubation at 37° C. with 5% CO2, 2 μL of 5× lysis buffer was added to each well using the I.DOT […]. Plates were sealed and incubated at RT for 10 min on a plate shaker set to 400 RPM. Cell lysates were then frozen at −80° C. before subsequent detection of pSTAT5 by AlphaLISA. At the time of the detection assay, cell lysates were thawed for 5 min at room temperature and then on a plate shaker set to 400 RPM for an additional 10 min. Following the manufacturer recommended protocol (Perkin Elmer), 5 μL of acceptor bead master mix was added to each well; plates were then resealed and incubated for 2 min at RT on a plate shaker (400 rpm) prior to an additional 2-h incubation without agitation (protected from light). Donor bead master mix, 5 uL per well, was then added to each well before 2 min of shaking (RT, 400 rpm) and 2-h incubation (RT, no shaking, protected from light). Levels of pSTAT5 protein were then measured as fluorescent signal at 615 nm with an EnVision multimode plate reader (Perkin Elmer). IC50 values were calculated in Dotmatics using the four-parameter logistic curve regression model with bottom fixed to 0 and Hill Slope fixed to −1.
`CNc1ncc(-c2nc3ncc(C)cc3o2)c2cc(NC(=O)C3CC3)ncc12` [Example 1104, N-(8-(methylamino)-5-(6-methyloxazolo[4,5-b]pyridin-2-yl)-2,7-naphthyridin-3-yl)cyclopropanecarboxamide] showed an IC50 of no more than 500 nM.
Molecule `CNc1ncc(C#Cc2nccc3cc(F)ccc23)c2cc(NC(=O)C3CC3)ncc12` [Example 1135, N-(5-((6-fluoroisoquinolin-1-yl)ethynyl)-8-(methylamino)-2,7-naphthyridin-3-yl)cyclopropanecarboxamide] has an IC50 of no more than 500 nM.
For `CNc1ncc(C#Cc2ccc3c(=O)n(C)ccc3c2)c2cc(NC(=O)C3CC3)ncc12` [Example 1136, N-(5-((2-methyl-1-oxo-1,2-dihydroisoquinolin-6-yl)ethynyl)-8-(methylamino)-2,7-naphthyridin-3-yl)cyclopropanecarboxamide], the IC50 was no more than 500 nM.
`CNc1ncc(C#Cc2cccc3c2CNCC3)c2cc(NC(=O)C3CC3)ncc12` [Example 1137, N-(8-(methylamino)-5-((1,2,3,4-tetrahydroisoquinolin-8-yl)ethynyl)-2,7-naphthyridin-3-yl)cyclopropanecarboxamide] showed an IC50 greater than 500 nM.
Work on `CNc1ncc(C#Cc2cn(C(F)F)c(C)n2)c2cc(NC(=O)[C@H]3C[C@H]3C)ncc12` [Example 1139, (1S,2R)—N-(5-((1-(difluoromethyl)-2-methyl-1H-imidazol-4-yl)ethynyl)-8-(methylamino)-2,7-naphthyridin-3-yl)-2-methylcyclopropanecarboxamide] yielded an IC50 of no more than 500 nM.
`CNc1ncc(C#Cc2cnc(C)n2C(F)F)c2cc(NC(=O)[C@H]3C[C@H]3C)ncc12` [Example 1140, (1S,2R)—N-(5-((1-(difluoromethyl)-2-methyl-1H-imidazol-5-yl)ethynyl)-8-(methylamino)-2,7-naphthyridin-3-yl)-2-methylcyclopropanecarboxamide] gave an IC50 of no more than 500 nM.

Same assay, conditions: Homo sapiens; THP-1 cells, IFNa-stimulated, AlphaLISA (Assay B); read-out: Cellular THP1_IFNa-pSTATS_IC50
`CNc1ncc(/C=C/c2ccccc2OC)c2cc(NC(=O)C3CC3)ncc12` [Example 174, (E)-N-(5-(2-methoxystyryl)-8-(methylamino)-2,7-naphthyridin-3-yl)cyclopropanecarboxamide] gave an IC50 of no more than 500 nM.

Same assay, conditions: Homo sapiens; THP-1 cells, IFNa-stimulated, AlphaLISA (Assay B); read-out: Cellular_THP1_IFNa-pSTATS_TYK2
With `CNc1ncc(-c2nc3cnc(C(F)F)cc3o2)c2cc(NC(=O)C3CC3)ncc12` [Example 461, N-(5-(6-(difluoromethyl)oxazolo[4,5-c]pyridin-2-yl)-8-(methylamino)-2,7-naphthyridin-3-yl)cyclopropanecarboxamide] the IC50 was no more than 500 nM.
With `CCNc1ncc(-c2nc3cc(N4CC5CNCC(C4)O5)ccc3o2)c2cc(NC(=O)C3CC3)ncc12` [Example 466, N-(5-(5-(9-oxa-3,7-diazabicyclo[3.3.1]nonan-3-yl)benzo[d]oxazol-2-yl)-8-(ethylamino)-2,7-naphthyridin-3-yl)cyclopropanecarboxamide] the IC50 was no more than 500 nM.
Work on `CNc1ncc(-c2cc3ccc(N4CCO[C@@H](C)C4)cn3n2)c2cc(NC(=O)C3CC3)ncc12` [Example 797, (S)—N-(8-(methylamino)-5-(6-(2-methylmorpholino)pyrazolo[1,5-a]pyridin-2-yl)-2,7-naphthyridin-3-yl)cyclopropanecarboxamide] yielded an IC50 of no more than 500 nM.
Work on `CNc1ncc(C#Cc2ccc(C(C)(C)O)cc2)c2cc(NC(=O)C3CC3)ncc12` [Example 802, N-(5-((4-(2-hydroxypropan-2-yl)phenyl)ethynyl)-8-(methylamino)-2,7-naphthyridin-3-yl)cyclopropanecarboxamide] yielded an IC50 of no more than 500 nM.
With `CNc1ncc(C#Cc2ccc3c(c2)CC(=O)N3C)c2cc(NC(=O)C3CC3)ncc12` [Example 803, N-(5-((1-methyl-2-oxoindolin-5-yl)ethynyl)-8-(methylamino)-2,7-naphthyridin-3-yl)cyclopropanecarboxamide] the IC50 was no more than 500 nM.
Molecule `CNc1ncc(C#Cc2ccc3nc(CF)n(C)c3c2)c2cc(NC(=O)C3CC3)ncc12` [Example 810, N-(5-((2-(fluoromethyl)-1-methyl-1H-benzo[d]imidazol-6-yl)ethynyl)-8-(methylamino)-2,7-naphthyridin-3-yl)cyclopropanecarboxamide] has an IC50 of no more than 500 nM.
`CNc1ncc(C#Cc2ccc(CN3CCO[C@@H](C)C3)cc2)c2cc(NC(=O)C3CC3)ncc12` [Example 814, (S)—N-(8-(methylamino)-5-((4-((2-methylmorpholino)methyl)phenyl)ethynyl)-2,7-naphthyridin-3-yl)cyclopropanecarboxamide] gave an IC50 of no more than 500 nM.
`CNc1ncc(-c2nc3cc(N4CCO[C@@H](C)C4)ccc3o2)c2cc(NC(=O)[C@H]3C[C@H]3C)nnc12` [Example 891, (1S,2R)-2-methyl-N-(8-(methylamino)-5-(5-((S)-2-methylmorpholino)benzo[d]oxazol-2-yl)pyrido[3,4-c]pyridazin-3-yl)cyclopropane-1-carboxamide] showed an IC50 of no more than 500 nM.
Molecule `CNc1ncc(-c2nc3ccc(N4CCOCC4)cn3n2)c2cc(Nc3ccccn3)nnc12` [Example 892, N^8-methyl-5-(6-morpholino-[1,2,4]triazolo[1,5-a]pyridin-2-yl)-N^3-(pyridin-2-yl)pyrido[3,4-c]pyridazine-3,8-diamine] has an IC50 of no more than 500 nM.
`CNc1ncc(C#Cc2ccc(CN3CCC3)cn2)c2cc(NC(=O)C3CC3)ncc12` [Example 905, N-(5-((5-(azetidin-1-ylmethyl)pyridin-2-yl)ethynyl)-8-(methylamino)-2,7-naphthyridin-3-yl)cyclopropanecarboxamide] gave an IC50 of no more than 500 nM.
`CNc1ncc(C#Cc2ccc(CN3CC(F)(F)C3)cn2)c2cc(NC(=O)C3CC3)ncc12` [Example 906, N-(5-((5-((3,3-difluoroazetidin-1-yl)methyl)pyridin-2-yl)ethynyl)-8-(methylamino)-2,7-naphthyridin-3-yl)cyclopropanecarboxamide] was tested, and the IC50 was no more than 500 nM.
With `CNc1ncc(C#Cc2ccc(Cn3cccn3)cn2)c2cc(NC(=O)C3CC3)ncc12` [Example 907, N-(5-((5-((1H-pyrazol-1-yl)methyl)pyridin-2-yl)ethynyl)-8-(methylamino)-2,7-naphthyridin-3-yl)cyclopropanecarboxamide] the IC50 was no more than 500 nM.
`CNc1ncc(C#Cc2ccc(Cn3nccn3)cn2)c2cc(NC(=O)C3CC3)ncc12` [Example 908, N-(5-((5-((2H-1,2,3-triazol-2-yl)methyl)pyridin-2-yl)ethynyl)-8-(methylamino)-2,7-naphthyridin-3-yl)cyclopropanecarboxamide] gave an IC50 of no more than 500 nM.
`CNc1ncc(C#Cc2ccc(Cn3ccnn3)cn2)c2cc(NC(=O)C3CC3)ncc12` [Example 909, N-(5-((5-((1H-1,2,3-triazol-1-yl)methyl)pyridin-2-yl)ethynyl)-8-(methylamino)-2,7-naphthyridin-3-yl)cyclopropanecarboxamide] gave an IC50 of no more than 500 nM.
In the case of `CNc1ncc(C#Cc2ccc(C(C)(C)C#N)cc2)c2cc(NC(=O)C3CC3)ncc12` [Example 910, N-(5-((4-(2-cyanopropan-2-yl)phenyl)ethynyl)-8-(methylamino)-2,7-naphthyridin-3-yl)cyclopropanecarboxamide], the IC50 is reported as no more than 500 nM.
Work on `CNc1ncc(C#Cc2ccc(CC#N)cn2)c2cc(NC(=O)C3CC3)ncc12` [Example 911, N-(5-((5-(cyanomethyl)pyridin-2-yl)ethynyl)-8-(methylamino)-2,7-naphthyridin-3-yl)cyclopropanecarboxamide] yielded an IC50 of no more than 500 nM.
`CNc1ncc(C#Cc2ccc(CN3CC(OC)C3)cn2)c2cc(NC(=O)C3CC3)ncc12` [Example 912, N-(5-((5-((3-methoxyazetidin-1-yl)methyl)pyridin-2-yl)ethynyl)-8-(methylamino)-2,7-naphthyridin-3-yl)cyclopropanecarboxamide] showed an IC50 of no more than 500 nM.

Same assay, conditions: THP-1 cells, IFNa-stimulated, AlphaLISA (Assay B); read-out: Cellular_THP1_IFNa-pSTATS_TYK2
Work on `CNc1ncc(-c2nc3cc(-c4ncnn4C)ccc3o2)c2cc(NC(=O)C3CC3)ncc12` [Example 465] yielded an IC50 of no more than 500 nM.
